According to US20220306659A1, “COMPOUND INHIBITING AND INDUCING DEGRADATION OF EGFR AND ALK” (BEIJING TIDE PHARMACEUTICAL CO., LTD., priority 2019, published 2022):

Tests used:
[1] = biological target: Ba/F3(EGFR^L858R/T790M/C797S) cells (Homo sapiens, UniProt P00533, T790M/C797S/L858R, cells depend on it); test: Assay of activity on Ba/F3 cells (CTG, 72 h); format: cell-based; details: read-out: IC50 (nM) Ba/F3 (EGFR^L858R/T790M/C797S)
Method in brief: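 Ba/F3 cells dependent on each EGFR triple mutant were exposed to 3-fold compound dilutions for 72 h at 37° C, 5% CO2, with CellTiter-Glo luminescence as the read-out.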

[2] = biological target: T1, Ba/F3(EML4-ALK) cells (Homo sapiens, UniProt Q9UM73); test: Assay of activity on Ba/F3(EML4-ALK) cells (CTG, 72 h); format: cell-based; details: read-out: IC50 (nM) Ba/F3(EML4-ALK)
T1 construct: fused on or other part: Q9HC35 (Echinoderm microtubule-associated protein-like 4)
Experimental: Assay of activity on Ba/F3(EML4-ALK) cells
(1) Ba/F3(EML4-ALK) cells were cultured according to the requirements of ATCC, incubated in an incubator at 37° C. and 5% CO2, and analyzed by index; cells with viability of >90% can be used in the assay, and cells were seeded in a 384-well plate (PerkinElmer, 6007680) with 700 cells/well, 30 μl/well.
(2) A compound stock solution was prepared, and diluted 3× to obtain a compound dilution; 30 nL of the serial dilution was added to a 384-well plate (784075, Greiner) by Echo 550, and cells were incubated in an incubator at 37° C. and 5% CO2 for 72 h.
(3) 30 μL of CTG was added to each well, and the 384-well plate was shaken on a Plate shaker (QILINBEIER, QB-9002); the 384-well plate was incubated in the dark at 37° C. and 5% CO2 for 30 min, and the chemiluminescence value was read by Envision (PerkinElmer, EnVision 2104).
The percent inhibition rate (% inhibition) was calculated by the formula below
LUMcmpd: Luminescence value of assay compound.
LUMpositive: Average LUM value of positive drug at a concentration of 10 μM.
LUM^vehicle: Average LUM value of negative control group without drug treatment.
(§1) The nonlinear regression curve (dose response-variable slope) between the value of inhibition rate (%) and the logarithm of compound concentration was fitted with graphpad prism 8.0, the effect dose curve of compound was drawn, and the IC50 value was calculated.
Y=Bottom+(Top−Bottom)/(1+10^((LogIC50−X)*HillSlope))
X-axis: logarithm of compound concentration; Y axis: inhibition rate (% inhibition).

[3] = biological target: ALK (Homo sapiens, UniProt Q9UM73); test: Assay of activity on ALK kinase; format: biochemical; details: kinase inhibition
Experimental: (§2) Assay of activity on ALK kinase
(§3) (1) A compound stock solution was prepared;
(§4) (2) The compound stock solution was diluted 3× to obtain a compound dilution;
(§5) (5) 5 μl of the 2× kinase working solution was added to the reaction plate, centrifuged at 1,000 rpm for 1 min, and incubated at 25° C. for 15 min;
(§6) (7) 5 μl of the TK-substrate-biotin and ATP (the mixture prepared in step (6)) was added to initiate the reaction;
(§7) (8) The mixture was centrifuged at 1,000 g for 30 s; the plate was sealed, and incubated at 25° C. for 60 min;
(§8) (11) The mixture was centrifuged at 1,000 g for 1 min, and incubated at 25° C. for 60 min;
(§9) Formula of inhibition rate (%): […]
as §1
(§10) Y=Bottom+(Top−Bottom)/(1+10^((LogIC50−X)*Hill Slope))
(§11) X-axis: logarithm of compound concentration; Y axis: inhibition rate ([…])

[4] = biological target: EGFR^L858R/T790M/C797S (Homo sapiens, UniProt P00533, C797S/L858R/T790M); test: EGFR inhibitory activity assay (TK-substrate-biotin/ATP, 665/615 ratio); format: biochemical; details: kinase inhibition
Method in brief: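 HTRF kinase assay: enzyme preincubated with compound 10 min at room temperature, then reacted with biotinylated TK substrate and ATP for 40 min at room temperature.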

[5] = biological target: ALK^G1202R (Homo sapiens, UniProt Q9UM73, G1202R); test: Assay of activity on ALK kinase; format: biochemical; details: kinase inhibition
Experimental: as §2, §3, §4, §5, §6, §7, §8, §9, §1, §10, §11

Chain of EGFR^L858R/T790M/C797S (P00533 25-1210 T790M/C797S/L858R): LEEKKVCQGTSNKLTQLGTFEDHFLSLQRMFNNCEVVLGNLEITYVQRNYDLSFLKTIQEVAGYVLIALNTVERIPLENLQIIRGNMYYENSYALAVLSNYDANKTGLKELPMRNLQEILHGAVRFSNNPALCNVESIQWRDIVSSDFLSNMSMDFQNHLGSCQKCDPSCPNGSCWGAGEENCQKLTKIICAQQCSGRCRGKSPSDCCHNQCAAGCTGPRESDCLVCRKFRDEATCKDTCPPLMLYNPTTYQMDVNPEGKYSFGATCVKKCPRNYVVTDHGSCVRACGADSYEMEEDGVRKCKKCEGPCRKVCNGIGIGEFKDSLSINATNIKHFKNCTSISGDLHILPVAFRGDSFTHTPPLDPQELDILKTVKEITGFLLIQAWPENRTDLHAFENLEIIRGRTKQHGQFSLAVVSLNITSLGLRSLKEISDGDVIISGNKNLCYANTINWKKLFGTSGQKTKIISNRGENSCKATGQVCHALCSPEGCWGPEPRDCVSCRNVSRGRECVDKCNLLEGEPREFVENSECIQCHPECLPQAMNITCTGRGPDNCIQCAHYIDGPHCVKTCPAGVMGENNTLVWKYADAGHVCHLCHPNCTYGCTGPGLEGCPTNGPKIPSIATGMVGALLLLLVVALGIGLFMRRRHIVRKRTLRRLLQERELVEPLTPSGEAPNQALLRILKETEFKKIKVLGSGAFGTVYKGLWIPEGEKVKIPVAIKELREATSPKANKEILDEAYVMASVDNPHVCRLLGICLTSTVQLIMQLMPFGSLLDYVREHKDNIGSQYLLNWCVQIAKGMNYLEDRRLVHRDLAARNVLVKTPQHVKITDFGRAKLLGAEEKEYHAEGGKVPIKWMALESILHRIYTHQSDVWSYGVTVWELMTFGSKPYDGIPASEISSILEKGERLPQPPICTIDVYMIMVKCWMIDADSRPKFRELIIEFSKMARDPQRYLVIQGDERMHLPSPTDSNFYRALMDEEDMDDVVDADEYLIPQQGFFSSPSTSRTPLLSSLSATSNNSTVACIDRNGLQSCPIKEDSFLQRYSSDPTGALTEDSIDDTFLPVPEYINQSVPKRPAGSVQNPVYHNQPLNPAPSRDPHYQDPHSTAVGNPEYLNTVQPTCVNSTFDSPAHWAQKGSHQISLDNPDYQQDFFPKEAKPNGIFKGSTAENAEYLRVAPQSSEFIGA
Chain of Ba/F3(EGFR^L858R/T790M/C797S) cells (P00533 whole entry T790M/C797S/L858R): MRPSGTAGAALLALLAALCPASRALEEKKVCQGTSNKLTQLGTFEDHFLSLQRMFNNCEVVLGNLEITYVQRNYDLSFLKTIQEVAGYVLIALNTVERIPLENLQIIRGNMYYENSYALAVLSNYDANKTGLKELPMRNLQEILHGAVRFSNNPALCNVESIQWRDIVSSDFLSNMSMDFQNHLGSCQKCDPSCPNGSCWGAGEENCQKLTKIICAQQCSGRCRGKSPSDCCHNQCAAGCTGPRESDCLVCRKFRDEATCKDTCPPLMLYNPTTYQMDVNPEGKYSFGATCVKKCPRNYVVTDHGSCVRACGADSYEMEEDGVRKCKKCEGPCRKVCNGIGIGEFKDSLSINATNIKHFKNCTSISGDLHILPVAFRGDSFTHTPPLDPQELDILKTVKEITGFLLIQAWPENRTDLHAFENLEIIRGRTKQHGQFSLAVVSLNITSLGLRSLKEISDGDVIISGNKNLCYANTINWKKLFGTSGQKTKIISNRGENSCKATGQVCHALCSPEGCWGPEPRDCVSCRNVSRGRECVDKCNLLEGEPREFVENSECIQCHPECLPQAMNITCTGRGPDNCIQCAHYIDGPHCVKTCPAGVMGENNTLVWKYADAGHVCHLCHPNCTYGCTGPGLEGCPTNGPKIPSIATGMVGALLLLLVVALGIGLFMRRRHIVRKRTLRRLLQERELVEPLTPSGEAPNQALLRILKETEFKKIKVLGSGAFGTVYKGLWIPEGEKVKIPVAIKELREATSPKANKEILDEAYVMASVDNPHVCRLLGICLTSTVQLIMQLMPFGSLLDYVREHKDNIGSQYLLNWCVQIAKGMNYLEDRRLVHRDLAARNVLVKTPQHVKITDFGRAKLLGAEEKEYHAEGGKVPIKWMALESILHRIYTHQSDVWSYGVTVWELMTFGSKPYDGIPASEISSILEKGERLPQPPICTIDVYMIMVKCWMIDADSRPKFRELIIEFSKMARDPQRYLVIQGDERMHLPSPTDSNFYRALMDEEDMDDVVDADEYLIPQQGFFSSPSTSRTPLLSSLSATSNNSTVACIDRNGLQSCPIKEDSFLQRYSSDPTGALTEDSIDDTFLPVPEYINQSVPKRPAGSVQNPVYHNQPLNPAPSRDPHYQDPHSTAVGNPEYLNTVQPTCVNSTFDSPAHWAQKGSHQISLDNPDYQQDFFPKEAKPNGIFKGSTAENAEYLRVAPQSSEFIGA
Chain of ALK^G1202R (Q9UM73 19-1620 G1202R): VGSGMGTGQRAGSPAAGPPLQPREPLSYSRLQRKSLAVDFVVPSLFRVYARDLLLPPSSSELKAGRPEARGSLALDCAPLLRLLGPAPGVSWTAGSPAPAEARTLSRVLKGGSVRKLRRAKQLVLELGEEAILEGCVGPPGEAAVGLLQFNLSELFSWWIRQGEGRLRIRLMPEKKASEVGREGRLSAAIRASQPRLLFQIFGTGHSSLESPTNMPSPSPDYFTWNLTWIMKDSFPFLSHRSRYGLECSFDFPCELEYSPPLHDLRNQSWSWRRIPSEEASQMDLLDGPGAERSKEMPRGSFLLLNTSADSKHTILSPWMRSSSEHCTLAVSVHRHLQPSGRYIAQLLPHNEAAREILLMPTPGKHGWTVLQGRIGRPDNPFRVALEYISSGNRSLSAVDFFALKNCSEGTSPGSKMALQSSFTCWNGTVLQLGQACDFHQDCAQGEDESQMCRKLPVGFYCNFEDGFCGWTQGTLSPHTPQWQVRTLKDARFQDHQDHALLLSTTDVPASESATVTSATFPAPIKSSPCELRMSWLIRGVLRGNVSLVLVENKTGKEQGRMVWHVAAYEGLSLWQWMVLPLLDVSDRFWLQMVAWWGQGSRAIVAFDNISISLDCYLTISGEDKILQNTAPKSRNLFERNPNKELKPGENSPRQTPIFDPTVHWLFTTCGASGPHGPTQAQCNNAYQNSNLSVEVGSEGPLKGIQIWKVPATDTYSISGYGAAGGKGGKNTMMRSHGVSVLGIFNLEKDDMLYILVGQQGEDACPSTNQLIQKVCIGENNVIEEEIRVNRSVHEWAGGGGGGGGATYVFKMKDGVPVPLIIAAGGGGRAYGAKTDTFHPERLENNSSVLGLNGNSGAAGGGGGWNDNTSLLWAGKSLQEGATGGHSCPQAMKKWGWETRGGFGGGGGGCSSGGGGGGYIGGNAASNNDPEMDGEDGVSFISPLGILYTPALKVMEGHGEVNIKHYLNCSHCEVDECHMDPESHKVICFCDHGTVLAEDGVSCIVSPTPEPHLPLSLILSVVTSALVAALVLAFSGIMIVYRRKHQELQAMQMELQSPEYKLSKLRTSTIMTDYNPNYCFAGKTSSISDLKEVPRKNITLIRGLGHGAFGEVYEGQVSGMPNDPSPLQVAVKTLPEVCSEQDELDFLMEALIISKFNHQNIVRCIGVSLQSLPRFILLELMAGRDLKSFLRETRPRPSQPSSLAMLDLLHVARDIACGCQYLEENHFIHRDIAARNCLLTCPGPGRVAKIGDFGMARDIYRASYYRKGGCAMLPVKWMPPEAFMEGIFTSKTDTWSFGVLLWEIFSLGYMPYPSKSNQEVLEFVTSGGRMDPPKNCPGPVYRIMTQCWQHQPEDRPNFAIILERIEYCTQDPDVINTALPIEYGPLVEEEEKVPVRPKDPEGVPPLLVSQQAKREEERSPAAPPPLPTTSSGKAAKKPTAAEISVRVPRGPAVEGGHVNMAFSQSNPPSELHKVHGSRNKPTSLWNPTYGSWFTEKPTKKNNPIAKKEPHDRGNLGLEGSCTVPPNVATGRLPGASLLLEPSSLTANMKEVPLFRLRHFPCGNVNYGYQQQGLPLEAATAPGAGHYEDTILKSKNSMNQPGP
Chain of ALK (Q9UM73 19-1620): as the sequence (Q9UM73 19-1620 G1202R) above, with R1184G counted along it

Structure (SMILES) | GI50 [1] [nM] | GI50 [2] [nM] | IC50 [3] [nM] | IC50 [4] [nM] | IC50 [5] [nM]
COc1cc(N2CCC(N3CCN(CCCCCC#Cc4cccc5c4CN(C4CCC(=O)NC4=O)C5=O)CC3)CC2)ccc1Nc1ncc(Cl)c(Nc2ccccc2P(C)(C)=O)n1 (centres unmarked) [Compound C1, 3-(4-(7-(4-(1-(4-((5-chloro-4-((2-(dimethylphosphoryl)phenyl)amino)pyrimidin-2-yl)amino)-3-methoxyphenyl)piperidin-4-yl)piperazin-1-yl)hept-1-yn-1-yl)-1-oxoisoindolin-2-yl)piperidine-2,6-dione] | 1 to 100 | 1 to 100 | 1 to 100 | 1 to 100 | 
COc1cc(N2CCC(N3CCN(CC(=O)N4CCC(CCOc5cccc6c5C(=O)N(C5CCC(=O)NC5=O)C6=O)CC4)CC3)CC2)ccc1Nc1ncc(Cl)c(Nc2ccccc2P(C)(C)=O)n1 (centres unmarked) [Compound C4, 4-(2-(1-(2-(4-(1-(4-((5-chloro-4-((2-(dimethylphosphoryl)phenyl)amino)pyrimidin-2-yl)amino)-3-methoxyphenyl)piperidin-4-yl)piperazin-1-yl)acetyl)piperidin-4-yl)ethoxy)-2-(2,6-dioxopiperidin-3-yl)isoindoline-1,3-dione] | 101 to 200 |  | 1 to 100 | 101 to 200 | 101 to 200

The next lines start with the values.

GI50 [1] [nM] | GI50 [2] [nM] | IC50 [3] [nM] | IC50 [4] [nM] | IC50 [5] [nM] | Structure (SMILES)
201 to 300 |  | 1 to 100 | 101 to 200 | 1 to 100 | COc1cc(N2CCC(N3CCN(C(=O)C(C)(C)COC(=O)COc4cccc5c4C(=O)N(C4CCC(=O)NC4=O)C5=O)CC3)CC2)ccc1Nc1ncc(Cl)c(Nc2ccccc2P(C)(C)=O)n1 (centres unmarked) [Compound C6, 2-((2-(2,6-dioxopiperidin-3-yl)-1,3-dioxoisoindolin-4-yl)oxy)acetic acid 3-(4-(1-(4-((5-Chloro-4-((2-(dimethylphosphoryl)phenyl)amino)pyrimidin-2-yl)amino)-3-methoxyphenyl)piperidin-4-yl)piperazin-1-yl)-2,2-dimethyl-3-oxopropyl ester]
> 300 |  | 1 to 100 | 1 to 100 | 1 to 100 | COc1cc(N2CCC(N3CCN(CC(=O)N4CC(Oc5cccc6c5C(=O)N(C5CCC(=O)NC5=O)C6=O)C4)CC3)CC2)ccc1Nc1ncc(Cl)c(Nc2ccccc2P(C)(C)=O)n1 (centres unmarked) [Compound C93, 4-((1-(2-(4-(1-(4-((5-chloro-4-((2-(dimethylphosphoryl)phenyl)amino)pyrimidin-2-yl)amino)-3-methoxyphenyl)piperidin-4-yl)piperazin-1-yl)acetyl)azetidin-3-yl)oxy)-2-(2,6-dioxopiperidin-3-yl)isoindoline-1,3-dione]
> 300 |  | 1 to 100 | 1 to 100 | 1 to 100 | COc1cc(N2CCC(N3CCN(CC(=O)N4CC(COc5cccc6c5C(=O)N(C5CCC(=O)NC5=O)C6=O)C4)CC3)CC2)ccc1Nc1ncc(Cl)c(Nc2ccccc2P(C)(C)=O)n1 (centres unmarked) [Compound C94, 4-((1-(2-(4-(1-(4-((5-chloro-4-((2-(dimethylphosphoryl)phenyl)amino)pyrimidin-2-yl)amino)-3-methoxyphenyl)piperidin-4-yl)piperazin-1-yl)acetyl)azetidin-3-yl)methoxy)-2-(2,6-dioxopiperidin-3-yl)isoindoline-1,3-dione]
 |  | 1 to 100 | 201 to 300 | > 300 | COc1cc(N2CCC(N3CCN(C(=O)CC4(CSCC(=O)Nc5cccc6c5C(=O)N(C5CCC(=O)NC5=O)C6=O)CC4)CC3)CC2)ccc1Nc1ncc(Cl)c(Nc2ccccc2P(C)(C)=O)n1 (centres unmarked) [Compound C103, 2-(((1-(2-(4-(1-(4-((5-chloro-4-((2-(dimethylphosphoryl)phenyl)amino)pyrimidin-2-yl)amino)-3-methoxyphenyl)piperidin-4-yl)piperazin-1-yl)-2-oxoethyl)cyclopropyl)methyl)thio)—N-(2-(2,6-dioxopiperidin-3-yl)-1,3-dioxoisoindolin-4-yl)acetamide]
